Activity calls are given as the source filed them.
Columns and labels:
[1] = P. falciparum Dd2 growth inhibitors, dose response, SYBR Green, cherry-picked samples (AID 1159567); assay type: functional, cell-based
[2] = growth inhibition of PfATP4-mutant resistant parasites – NITD609-resistant line, SYBR Green, dry powder, dose response (AID 1159571); assay type: functional, cell-based;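 also: parasites synchronized at ring stage by sorbitol before testing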
[3] = growth inhibition of yeast DHODH-expressing 3D7 parasites – SYBR Green, dry powder samples, dose response (AID 1159570); assay type: functional, cell-based;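 also: parasite growth measured after 72 hours of compound exposure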
[4] = Dd2 malaria parasite growth inhibition potency – SYBR Green, dry powder samples, dose response (AID 1159566); assay type: functional, cell-based;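 also: potency for growth inhibition with lower SYBR green DNA signal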
[5] = toxicity to human HepG2 hepatoma cells – cell-based, plate reader, dry powder samples, cytotoxicity control, dose response (AID 1159569); assay type: functional;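 also: inhibitor potency with signal falling toward the positive control level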
cells [6] = assay type: functional, cell-based; details: INS-1E
Cytochrome P450 2C19 = Cytochrome P450 2C19 (Homo sapiens, UniProt P33261); assay: Cytochrome panel assay with activity outcomes. Panel member name: p450-cyp2c19 Compounds with AC50 equal or less than 10 uM are considered active; assay type: functional; details: read-out: AC50
Sequence of Cytochrome P450 2C19 (P33261 whole entry): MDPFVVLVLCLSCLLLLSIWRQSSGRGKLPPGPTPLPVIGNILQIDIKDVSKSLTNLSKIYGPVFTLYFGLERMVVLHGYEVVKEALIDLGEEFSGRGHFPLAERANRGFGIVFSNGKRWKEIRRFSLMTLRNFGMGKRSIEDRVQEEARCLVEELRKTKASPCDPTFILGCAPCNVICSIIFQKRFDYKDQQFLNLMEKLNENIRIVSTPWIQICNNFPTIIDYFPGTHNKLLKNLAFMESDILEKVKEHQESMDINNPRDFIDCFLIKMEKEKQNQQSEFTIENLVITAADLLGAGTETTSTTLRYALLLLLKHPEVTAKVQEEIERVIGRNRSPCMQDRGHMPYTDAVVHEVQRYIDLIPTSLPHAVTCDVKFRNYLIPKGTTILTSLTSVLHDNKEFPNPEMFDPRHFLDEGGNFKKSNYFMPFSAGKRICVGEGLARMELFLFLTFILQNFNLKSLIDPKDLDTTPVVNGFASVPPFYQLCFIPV

[7] = IC50 of insulin release inhibition, rat insulinoma INS-1E line, 5 mM glucose, cell-based (AID 1117331); assay type: functional
Cytochrome P450 1A2 = molecular target: T1, Cytochrome P450 1A2 (Homo sapiens, UniProt P05177);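 also: PubChem cytochrome P450 panel assay, CYP1A2 panel member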
T1 sequence (P05177 whole entry): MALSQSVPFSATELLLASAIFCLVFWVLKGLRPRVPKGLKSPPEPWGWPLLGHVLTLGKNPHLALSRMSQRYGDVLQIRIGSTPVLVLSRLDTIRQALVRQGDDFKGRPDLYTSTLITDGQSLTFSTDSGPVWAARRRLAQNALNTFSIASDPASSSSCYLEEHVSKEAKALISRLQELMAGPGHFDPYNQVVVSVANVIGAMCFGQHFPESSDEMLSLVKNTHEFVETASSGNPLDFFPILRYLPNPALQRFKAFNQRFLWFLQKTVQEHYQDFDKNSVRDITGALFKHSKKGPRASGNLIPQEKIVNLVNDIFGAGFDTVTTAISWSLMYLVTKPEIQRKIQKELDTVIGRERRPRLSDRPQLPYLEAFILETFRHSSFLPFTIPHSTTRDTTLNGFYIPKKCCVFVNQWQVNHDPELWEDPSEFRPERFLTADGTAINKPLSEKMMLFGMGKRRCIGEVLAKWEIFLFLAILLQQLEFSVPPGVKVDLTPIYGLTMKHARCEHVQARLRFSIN

[8] = inhibitors of non-replicating M. tuberculosis, dose response, luciferase, dry powder (AID 651620); assay type: functional; details: Mycobacterium tuberculosis
[9] = inhibitors of non-replicating M. tuberculosis, dose response, luciferase, dry powder (AID 651619); assay type: functional; details: Mycobacterium tuberculosis
[10] = molecular target: Endoplasmic reticulum aminopeptidase 1 (Homo sapiens, UniProt Q9NZ08); assay: inhibition of human ERAP1 enzyme activity – biochemical, cherry-pick, set 2, plate reader, dose response (AID 743314)
Sequence of Endoplasmic reticulum aminopeptidase 1 (Q9NZ08 whole entry): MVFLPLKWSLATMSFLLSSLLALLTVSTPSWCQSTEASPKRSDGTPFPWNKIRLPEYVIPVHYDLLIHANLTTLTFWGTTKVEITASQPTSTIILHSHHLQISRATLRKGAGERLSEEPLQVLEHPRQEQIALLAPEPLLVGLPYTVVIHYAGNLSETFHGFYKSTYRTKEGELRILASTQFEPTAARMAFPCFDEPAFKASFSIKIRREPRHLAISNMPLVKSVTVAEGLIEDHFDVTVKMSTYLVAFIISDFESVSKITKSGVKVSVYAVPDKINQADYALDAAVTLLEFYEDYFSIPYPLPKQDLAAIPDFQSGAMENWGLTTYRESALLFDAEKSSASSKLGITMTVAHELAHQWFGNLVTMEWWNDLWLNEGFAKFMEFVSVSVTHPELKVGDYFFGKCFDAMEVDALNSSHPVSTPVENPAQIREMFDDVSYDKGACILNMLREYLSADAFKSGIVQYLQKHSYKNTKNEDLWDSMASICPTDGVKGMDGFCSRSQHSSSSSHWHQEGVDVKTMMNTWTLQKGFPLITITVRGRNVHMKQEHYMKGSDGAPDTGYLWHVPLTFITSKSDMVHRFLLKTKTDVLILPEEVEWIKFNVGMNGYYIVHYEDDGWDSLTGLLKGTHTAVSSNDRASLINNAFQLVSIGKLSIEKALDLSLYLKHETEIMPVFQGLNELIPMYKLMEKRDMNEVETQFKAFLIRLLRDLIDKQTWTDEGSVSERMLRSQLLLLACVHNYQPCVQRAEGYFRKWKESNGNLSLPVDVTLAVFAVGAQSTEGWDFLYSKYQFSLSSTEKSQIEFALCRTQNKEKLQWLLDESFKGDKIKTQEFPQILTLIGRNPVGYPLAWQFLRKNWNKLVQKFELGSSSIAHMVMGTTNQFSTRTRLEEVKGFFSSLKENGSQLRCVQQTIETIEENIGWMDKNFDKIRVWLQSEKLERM

[11] = molecular target: COUP transcription factor 2 (Homo sapiens, UniProt P24468); assay: Luminescence-based cell-based high throughput dose response assay to identify inhibitors of COUP-TFII (NR2F2).; assay type: functional;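 also: HEK293 cells transiently cotransfected with COUP-TFII expression vector and reporter; luciferase reporter luminescence driven by COUP-TFII from the pX2-168 reporter plasmid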
Sequence of COUP transcription factor 2 (P24468 whole entry): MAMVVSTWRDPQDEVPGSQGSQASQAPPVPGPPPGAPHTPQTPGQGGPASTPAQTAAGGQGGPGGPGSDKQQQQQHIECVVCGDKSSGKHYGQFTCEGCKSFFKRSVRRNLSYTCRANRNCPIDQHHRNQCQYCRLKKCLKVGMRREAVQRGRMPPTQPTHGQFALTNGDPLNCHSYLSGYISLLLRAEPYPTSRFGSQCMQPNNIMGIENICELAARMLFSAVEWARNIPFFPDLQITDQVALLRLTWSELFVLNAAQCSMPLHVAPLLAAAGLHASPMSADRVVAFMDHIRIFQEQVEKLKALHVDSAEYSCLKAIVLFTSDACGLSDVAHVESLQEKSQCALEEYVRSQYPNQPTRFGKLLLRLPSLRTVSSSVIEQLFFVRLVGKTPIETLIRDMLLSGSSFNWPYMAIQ

[12] = T. cruzi growth inhibition in host cells, dose response, cell-based, plate reader, dry powder, set 2 (AID 652275); assay type: functional
[13] = lung carcinoma cell viability loss – CellTiter-Glo luminescence, dry powder, set 17, dose response (AID 1117284); assay type: functional, cell-based; details: A549
[14] = OVCAR8 cell viability loss – plate reader, dry powder samples, PAX8 project, dose response (AID 743197); assay type: functional, cell-based; details: OVCAR-8
Paired box protein Pax-8 = Paired box protein Pax-8 (Homo sapiens, UniProt Q06710); assay: PAX8 transcriptional activity inhibition in RMG-I – RMG-I cells, luciferase, cherry-pick, dose response (AID 687027); assay type: functional, cell-based;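 also: luciferase reporter driven by Pax8 target thyroperoxidase promoter measured by SteadyGlo luminescence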
Sequence of Paired box protein Pax-8 (Q06710 whole entry): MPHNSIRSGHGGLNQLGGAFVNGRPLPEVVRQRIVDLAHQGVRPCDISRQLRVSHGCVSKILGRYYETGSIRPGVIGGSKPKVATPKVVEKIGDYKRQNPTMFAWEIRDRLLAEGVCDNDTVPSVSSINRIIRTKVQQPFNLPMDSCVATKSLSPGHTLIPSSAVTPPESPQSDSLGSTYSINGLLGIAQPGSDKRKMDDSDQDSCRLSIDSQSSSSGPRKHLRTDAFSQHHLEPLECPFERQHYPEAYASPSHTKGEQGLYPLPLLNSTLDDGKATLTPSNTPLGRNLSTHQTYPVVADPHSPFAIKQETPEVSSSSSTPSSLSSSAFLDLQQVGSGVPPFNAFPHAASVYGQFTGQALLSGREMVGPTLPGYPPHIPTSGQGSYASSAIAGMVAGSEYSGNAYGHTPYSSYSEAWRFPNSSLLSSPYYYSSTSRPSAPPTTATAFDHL

cells [15] = assay type: functional, cell-based
[16] = Trypanosoma cruzi growth suppression in host cells – NIH3T3 host cells, beta-gal luminescence, confirmation (AID 2044); assay type: functional, cell-based;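 also: intracellular parasites grown in NIH/3T3 mouse fibroblasts as host cells; luminescent beta-galactosidase reporter signal from transgenic T. cruzi replicating inside host cells; inhibitors lower the luminescence signal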
[17] = HGIII-sPLA2 enzyme inhibition potency – biochemical, QFRET, IC50, dose response (AID 743457);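 also: green fluorescence rise as the enzyme cleaves BODIPY PC-A2 in liposomes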
[18] = Luminescence-based dose response cell-based high throughput screening assay for cytotoxic compounds using the IEC-6 intestinal epithelial cell line. [Related pubchem assays: 1858 (Summary AID.), 1825 (Counterscreen.), 1907 (Confirmation screen.)]; assay type: functional
INS1 = assay: INS-1E survival protection against cytokine death – cell-based, luminescence, retest, dose response (AID 449756); assay type: functional; details: Rattus norvegicus;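 also: cell death triggered by IL-1 beta plus TNF-alpha plus IFN-gamma mixture; protective hits raise ATP signal compared with cytokine alone wells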
cells [19] = assay type: functional, cell-based; remark: listed apart in the source
Albumin = Albumin (Bos taurus, UniProt P02769); assay: Counterscreen for inhibitors of T-cell receptor (TCR)-CD3 interaction: Fluorescence-based biochemical high throughput dose response assay to identify inhibitors of T-cell receptor (TCR)-CD3 interaction using a TAMRA-labeled BSA probe.; assay type: functional
Sequence of Albumin (P02769 whole entry): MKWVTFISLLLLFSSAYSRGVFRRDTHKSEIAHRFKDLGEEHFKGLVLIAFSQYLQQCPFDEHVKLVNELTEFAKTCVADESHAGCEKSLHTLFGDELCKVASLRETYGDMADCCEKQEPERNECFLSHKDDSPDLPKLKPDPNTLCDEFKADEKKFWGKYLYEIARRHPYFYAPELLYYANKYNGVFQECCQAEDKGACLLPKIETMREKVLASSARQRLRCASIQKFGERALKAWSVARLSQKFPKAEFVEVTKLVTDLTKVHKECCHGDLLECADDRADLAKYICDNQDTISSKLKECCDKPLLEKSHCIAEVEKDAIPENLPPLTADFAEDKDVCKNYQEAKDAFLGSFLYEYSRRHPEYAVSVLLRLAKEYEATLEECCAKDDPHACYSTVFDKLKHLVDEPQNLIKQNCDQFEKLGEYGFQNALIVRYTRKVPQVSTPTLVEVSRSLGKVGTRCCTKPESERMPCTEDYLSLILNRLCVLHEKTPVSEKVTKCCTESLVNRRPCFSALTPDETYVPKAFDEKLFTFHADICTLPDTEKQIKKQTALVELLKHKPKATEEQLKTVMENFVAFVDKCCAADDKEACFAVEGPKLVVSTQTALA

[20] = NIH3T3 cell viability loss – ATP luminescence, mouse fibroblasts, counter-screen, dose response (AID 2010); assay type: functional, cell-based;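 also: cells exposed to compound for about 90 hours before reading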
[21] = HPDE-C7 pancreatic duct cell viability loss – fluorescence, HTS (AID 430); assay type: functional, cell-based; details: Homo sapiens
[22] = microbe, parasite or virus in culture; assay type: functional; details: Mycobacterium tuberculosis
[23] = viability loss of HPDE-C7K cells – cell-based, fluorescence, HTS, primary screen (AID 431); assay type: functional; details: Homo sapiens

CN(C)C(=O)c1ccc(-c2cccc(-c3nc(C(=O)NC4CCCC4)cc4c3[C@H](CCO)N([S@@+]([O-])C(C)(C)C)C4)c2)cc1
AC50 [1]: 1.99 µM (active) | AC50 [2]: 1.03 µM (active) | AC50 [3]: 1.14 µM (active) | AC50 [4]: 0.768 µM (active) | AC50 [5]: 30.5 µM (active)

N=C(N)NCCC[C@H](N)C(=O)O [ARGININE]
IC50 (cells [6]): > 33.3 µM (inactive) | AC50 (Cytochrome P450 2C19): 10 µM (inconclusive) | IC50 [7]: > 33.3 µM (inactive) | AC50 (Cytochrome P450 1A2): 31.6 µM (inconclusive)

COc1cccc(NC(=O)N2[C@@H](CO)[C@H](c3ccccc3)[C@@H]2CNCC(C)C)c1
AC50 [1]: 2.02 µM (active) | AC50 [2]: 1.66 µM (active) | AC50 [3]: 1.46 µM (active) | AC50 [4]: 0.852 µM (active) | AC50 [5]: 95.4 µM (active)

COc1ccc(CSc2nnc(-c3ccc(Cl)cc3)o2)nc1
IC90 [8]: 2 µM (active) | IC90 [9]: 2 µM (active)

CCC(=O)N1[C@H](C(=O)OC)[C@@H](CO)[C@@H]2Cn3c(ccc(/C=C/c4ccccc4)c3=O)[C@@H]21
AC50 [10]: 12.8 µM (active)

Cc1ccc(Cl)cc1S(=O)(=O)N1CCC(C(=O)NC2CCN(Cc3ccccc3)CC2)CC1
IC50 [11]: 12 µM (inactive)

C[C@H]1CN([C@@H](C)CO)C(=O)c2cccc(NC(=O)c3ccncc3)c2O[C@@H]1CN(C)Cc1ccc(F)cc1Cl
AC50 [12]: 0.0324 µM (active)

C[C@@H]1CN([C@@H](C)CO)S(=O)(=O)c2ccc(C#C[C@@H](C)O)cc2O[C@@H]1CN(C)Cc1ccc(-c2ccccc2)cc1
AC50 [13]: > 52 µM (inactive) | AC50 [14]: > 70 µM (inactive) | AC50 (Paired box protein Pax-8): 12.3 µM (active)

C/C(=N\NC(=O)c1nnn(-c2nonc2N)c1-c1ccccc1)c1ccccc1O
EC50 (cells [15]): 113 µM (active) | EC50 [16]: 0.617 µM (active) | IC50 [17]: > 122 µM (inactive) | IC50 [18]: 1.19 µM (active) | AC50 (INS1): 0.353 µM (active) | EC50 (cells [19]): 58.5 µM (active) | IC50 (Albumin): > 94.1 µM (inactive) | EC50 [20]: 3.76 µM (active)

CCCNC(=O)N(C)C[C@@H]1Oc2ncc(-c3ccncc3)cc2C(=O)N([C@H](C)CO)C[C@@H]1C
AC50 [10]: 16.9 µM (active)

Cc1oc(C(=O)Nc2ccc(O)cc2)cc1COc1ccccc1
EC50 [21]: 16.6 µM (active) | CC50 [22]: > 40 µM (active) | EC50 [23]: 13.9 µM (active)

— ChEMBL document CHEMBL1201862, “PubChem BioAssay data set” (2004)
